Results as given in patent publication US12534436B2, “Disubstituted adamantyl derivative or pharmaceutically acceptable salt thereof, and pharmaceutical composition for suppressing cancer growth comprising same as active ingredient” (ONECUREGEN CO., LTD., priority 2020, dated 2026).

Assays:
[1] = test system: HIF-1 (HRE-dependent luciferase reporter); experiment: HRE-luciferase assay, screening of HIF-1 inhibitors in HCT116 cells; type: cell-based, human; conditions: Homo sapiens, HCT-116; HCT116 cells stably expressing HRE-dependent luciferase reporter, hypoxic conditions, 12 hours; means of three experiments
Procedure: HCT116 cells stably expressing the HRE-dependent luciferase reporter were treated with the disubstituted adamantyl derivative prepared in the above example under hypoxic conditions for 12 hours before measuring luciferase activity.
In HCT116 cells treated with disubstituted adamantyl derivatives, luciferase activity was investigated using HRE-luciferase assay. The HRE-luciferase reporter assay was performed as previously described using the luciferase assay system (Promega, Madison, WI, USA) according to the manufacturer's instructions (Naik, R. et al. Synthesis and Structure-Activity Relationship of (E)Phenoxyacrylic Amide Derivatives as Hypoxia-Inducible Factor (HIF) 1α Inhibitors. J. Med. Chem. 55, 10564-1057 (2012)). Luciferase activity was measured using a Victor X light luminescence reader (PerkinElmer, Boston, MA, USA).

various cancer cells = experiment: Cell viability by methylene blue colorimetric assay, various cancer cells; type: cell-based; conditions: Homo sapiens; range over the cancer cell lines, methylene blue assay (FIG. 1B); read-out: GI50, proliferation of various cancer cells
Procedure: (§1) Among the newly synthesized adamantyl compounds, it was evaluated how compound 21c (LW1564, Compound 21-3), FIG. 1A) affected proliferation suppression of various cancer cells. Human breast cancer cells (MCF7), human cervical cancer cells (HeLa), human colorectal cancer cells (HCT116, HCT15, LoVo, SW480, SW620 and WiDr), human fibrosarcoma cells (HT1080), human gastric cancer cells (NCI-N87, NUGC3 and SNU484), human liver cancer cells (HepG2, HT17, Huh7, SHJ1 and SK-Hep1), human lung cancer cells (A549 and H1299), human pancreatic cancer cells (AsPC1 and MIA-PaCa2) and normal lung fibroblasts (CCD-34Lu and WI-38) were purchased from the American Type Culture Collection (Manassas, Virginia, USA) or KRIBB Cell Line Bank (Daejeon). For cell culture, cells were cultured in a DMEM medium (Gibco, Grand Island, New York, USA) supplemented with 5% (v/v) fetal bovine serum (WelGENE, Daegu, Korea) and 100 U/ml penicillin and 100 μg/ml streptomycin (Gibco). Cells were maintained at 37° C. in a humidified incubator with 5% CO2, and hypoxia and a multi-gas incubator (Sanyo, Osaka, Japan) was adjusted to 1% O2, 94% N2 and 5% CO2. Cell viability was determined by methylene blue colorimetric assay as described in the “Chou, T. C. […] The dye was eluted with 0.1% HCl (v/v) and quantified at 600 nm on a Molecular Devices EMax (Molecular Devices, CA, USA). […]

[2] = test system: CCD-34Lu normal lung fibroblasts; experiment: Cell viability by methylene blue colorimetric assay, normal cells CCD-34Lu; type: cell-based; conditions: Homo sapiens, Fibroblast; methylene blue assay (FIG. 1B); read-out: GI50, growth of normal cells CCD-34Lu
Procedure: as §1

[3] = test system: WI-38 normal lung fibroblasts; experiment: Cell viability by methylene blue colorimetric assay, normal cells WI-38; type: cell-based; conditions: Homo sapiens, methylene blue assay (FIG. 1B), read-out: GI50, growth of normal cells WI-38
Procedure: as §1

HepG2 and A549 cells = experiment: Cell proliferation by live cell imaging system IncuCyte ZOOM; type: cell-based, human; conditions: IncuCyte ZOOM (FIG. 1C)
[4] = test system: mitochondrial respiration; experiment: Oxygen consumption rate (OCR), Oxytherm Clark-type electrode, HepG2 cells; type: cell-based, human; conditions: 2 μM, 6 hours (FIG. 3A)
Procedure: (§2) Compounds that suppress mitochondrial respiration promote degradation of HIF-1α by increasing cellular oxygen content. Accordingly, it was investigated whether LW1564 (compound 21-3) affected mitochondrial respiration by measuring the oxygen consumption rate (OCR). Oxygen consumption was measured using an Oxytherm Clark-type electrode system (Hansatech, Norfolk, UK) (Chou, T. C. Theoretical basis, experimental design, and computerized simulation of synergism and antagonism in drug combination studies. Pharmacol. Rev. 58, 621-681 (2006)). HepG2 cells (2×10^7) were cultured with 2 μM LW1564 (compound 21-3) for 6 hours, collected, and then OCR was measured at 37° C. for 5 minutes with a thermoregulated controlled circulating system. For […] studies, digitonin-permeabilised HepG2 cells (2×10^7) were read on a detection device containing 2 ml of respiratory buffer (0.25 M sucrose, 2 mM KH2PO4, 5 mM MgCl2, 1 mM EDTA, 1 mM ADP, 20 mM MOPS, pH 7.4). The following substrates, which provide electrons to the components in the ETC, were then added: 5 mM sodium pyruvate, 5 mM sodium malate, 5 mM sodium succinate, 5 mM L-ascorbic acid and 0.2 mM N,N,N,N-tetra methyl-p-phenylenediamine (TMPD). Complex I, III and IV inhibitors (rotenone, antimycin A and KCN, respectively) were added to a final concentration of 1 μM.

[5] = test system: mitochondrial ETC complex I; experiment: Mitochondrial respiration assay, complex I (malate/pyruvate); type: cell-based, human; conditions: HepG2 cells, 100 μM LW1564 (FIG. 4B)
Procedure: as §2, with “μM. […]” for “μM.”

Complex IV = experiment: Mitochondrial respiration assay, complex IV (ascorbate/TMPD); type: cell-based, human; conditions: HepG2 cells (FIG. 4D)
Procedure: as §2, with “μM. […]” for “μM.”

IC50 [1]: 1.1 µM
GI50 (various cancer cells): 0.4 to 4.6 µM
SMILES: COc1cc2c(cc1OC)CN(C(=O)C13CC4CC(C1)CC(c1ccc(OCC(=O)N5CCN(Cc6ccc(C(F)(F)F)cc6)CC5)cc1)(C4)C3)CC2 [Compound 21c, 2-(4-(3-(6,7-Dimethoxy-1,2,3,4-tetrahydroisoquinoline-2-carbonyl)adamantan-1-yl)phenoxy)-1-(4-(4-(trifluoromethyl)benzyl)piperazin-1-yl) ethanone]
GI50 [2]: > 20 µM
GI50 [3]: > 20 µM
proliferation inhibition, live cell imaging (HepG2 and A549 cells): induced proliferation inhibition of HepG2 and A549 cells in a dose-dependent manner
oxygen consumption rate (OCR) [4]: significantly suppressed OCR
oxygen consumption by complex I [5]: reduced oxygen consumption by complex I
oxygen consumption rate in the presence of ascorbate/TMPD (Complex IV): did not affect the oxygen consumption rate
